The record followed here is patent US8658646B2, “Pyrrolopyrazine kinase inhibitors” (Hoffmann-LaRoche Inc., priority 2011, dated 2014).

pIC50: −log10 of the molar value. Structures can show the parent of a compound that is named as a salt.

For the first experiment, the target named is T1, JAK3: Recombinant human kinase domain (Homo sapiens, UniProt P52333).
T1 construct: JAK3: Recombinant human kinase domain from Millipore (Cat #14-629) or prepared; purchased Millipore 14-629
T1 sequence (P52333 822-1111 limits assumed): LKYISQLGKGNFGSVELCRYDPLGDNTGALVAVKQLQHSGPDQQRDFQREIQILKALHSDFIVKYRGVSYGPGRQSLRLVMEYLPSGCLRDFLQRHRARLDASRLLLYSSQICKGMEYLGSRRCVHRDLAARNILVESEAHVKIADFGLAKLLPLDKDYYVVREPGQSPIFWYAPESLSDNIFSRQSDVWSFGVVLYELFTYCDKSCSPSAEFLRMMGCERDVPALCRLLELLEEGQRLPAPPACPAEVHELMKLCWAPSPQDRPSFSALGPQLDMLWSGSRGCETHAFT
In words: Determination of IC50 of Janus Kinase (JAK) inhibition, radioactive end-point 33P-ATP assay, JAK3. The experiment is classed as biochemical. The settings on record: ATP 1.5 uM, peptide 50 uM, 20 minutes, read-out: JAK3-INHIB-DR/v1~NO ADDITIVE~Enzyme_Conc = 100.
Regarding `Cn1nc(-c2cnc3[nH]cc(C(=O)N[C@H]4CCC[C@H](C(N)=O)C4)c3n2)c2ccc(Cl)cc21` (relative stereo) [Example I-155, 2-(6-Chloro-1-methyl-1H-indazol-3-yl)-5H-pyrrolo[2,3-b]pyrazine-7-carboxylic acid (trans-3-carbamoyl-cyclohexyl)-amide], the pIC50 was 7.11.

As for `C[C@@H](NC(=O)c1c[nH]c2ncc(-c3nn(C)c4cc(Cl)ccc34)nc12)[C@@H]1C[C@@H]1C#N` (single isomer, unassigned) [Example I-206], the pIC50 is 7.76.

As for `C[C@@H](NC(=O)c1c[nH]c2ncc(-c3nn(C)c4cc(Cl)ccc34)nc12)[C@H]1C[C@H]1C#N` (single isomer, unassigned) [Example I-207], the pIC50 was 8.26.

`Cn1nc(-c2cnc3[nH]cc(C(=O)N[C@@H](C(=O)N4CCC(C#N)CC4)C4CC4)c3n2)c2ccccc21` [Example I-1]: the pIC50 was 8.76.

`Cn1nc(-c2cnc3[nH]cc(C(=O)N[C@@H](C(=O)N4CCC(C#N)CC4)C4CC4)c3n2)c2ccc(Cl)cc21` [Example I-2, 2-(6-Chloro-1-methyl-1H-indazol-3-yl)-5H-pyrrolo[2,3-b]pyrazine-7-carboxylic acid [(R)-2-(4-cyano-piperidin-1-yl)-1-cyclopropyl-2-oxo-ethyl]-amide]: the pIC50 was 9.24.

In the case of `Cn1nc(-c2cnc3[nH]cc(C(=O)N[C@@H](C(=O)N4CCC(C#N)CC4)C4CC4)c3n2)c2cc(Cl)ccc21` [Example I-3, 2-(5-Chloro-1-methyl-1H-indazol-3-yl)-5H-pyrrolo[2,3-b]pyrazine-7-carboxylic acid [(R)-2-(4-cyano-piperidin-1-yl)-1-cyclopropyl-2-oxo-ethyl]-amide], the pIC50 is 8.97.

For `C[C@@H](NC(=O)c1c[nH]c2ncc(-c3nn(C)c4cc(Cl)c(Cl)cc34)nc12)C(=O)N1CC(C#N)C1` [Example I-6, 2-(5,6-Dichloro-1-methyl-1H-indazol-3-yl)-5H-pyrrolo[2,3-b]pyrazine-7-carboxylic acid [(R)-2-(3-cyano-azetidin-1-yl)-1-methyl-2-oxo-ethyl]-amide], the pIC50 was 8.91.

For `Cn1nc(-c2cnc3[nH]cc(C(=O)N[C@@H](C(=O)N4CCC(C#N)CC4)C(C)(C)C)c3n2)c2cc(Cl)ccc21` [Example I-8, 2-(5-Chloro-1-methyl-1H-indazol-3-yl)-5H-pyrrolo[2,3-b]pyrazine-7-carboxylic acid [(R)-1-(4-cyano-piperidine-1-carbonyl)-2,2-dimethyl-propyl]-amide], the pIC50 is 8.55.

For `Cn1nc(-c2cnc3[nH]cc(C(=O)N[C@@H](C(=O)N4CCC(C#N)CC4)C4CC4)c3n2)c2ccc(C3CC3)cc21` [Example I-9, 2-(6-Cyclopropyl-1-methyl-1H-indazol-3-yl)-5H-pyrrolo[2,3-b]pyrazine-7-carboxylic acid [(R)-2-(4-cyano-piperidin-1-yl)-1-cyclopropyl-2-oxo-ethyl]-amide], the pIC50 was 8.40.

`Cn1nc(-c2cnc3[nH]cc(C(=O)N[C@@H](C(=O)N4CCC(C#N)CC4)C4CC4)c3n2)c2c1CCCC2` [Example I-10, 2-(1-Methyl-4,5,6,7-tetrahydro-1H-indazol-3-yl)-5H-pyrrolo[2,3-b]pyrazine-7-carboxylic acid [(R)-2-(4-cyano-piperidin-1-yl)-1-cyclopropyl-2-oxo-ethyl]-amide]: the pIC50 is 8.82.

Regarding `C[C@H](NC(=O)c1c[nH]c2ncc(-c3nn(C)c4ccc(Cl)cc34)nc12)C(C)(C)C` [Example I-11, 2-(5-Chloro-1-methyl-1H-indazol-3-yl)-5H-pyrrolo[2,3-b]pyrazine-7-carboxylic acid ((S)-1,2,2-trimethyl-propyl)-amide], the pIC50 was 8.75.

For the compound `C[C@@H](NC(=O)c1c[nH]c2ncc(-c3nn(C)c4cc(Cl)ccc34)nc12)C(C)(C)O` [Example I-12, 2-(6-Chloro-1-methyl-1H-indazol-3-yl)-5H-pyrrolo[2,3-b]pyrazine-7-carboxylic acid ((R)-2-hydroxy-1,2-dimethyl-propyl)-amide], the pIC50 was 7.72.

Turning to `C[C@@H](NC(=O)c1c[nH]c2ncc(-c3nn(C)c4c3CC(C)(C)CC4)nc12)C(=O)N1CC(C#N)C1` [Example I-13], the pIC50 was 7.51.

On to `C[C@@H](NC(=O)c1c[nH]c2ncc(-c3nn(C)c4cc(Cl)ccc34)nc12)C(=O)N1CC(F)(F)C1` [Example I-14, 2-(6-Chloro-1-methyl-1H-indazol-3-yl)-5H-pyrrolo[2,3-b]pyrazine-7-carboxylic acid [(R)-2-(3,3-difluoro-azetidin-1-yl)-1-methyl-2-oxo-ethyl]-amide], for which the pIC50 was 7.56.

Take `Cn1nc(-c2cnc3[nH]cc(C(=O)N[C@@H]4CCCN(S(C)(=O)=O)C4)c3n2)c2ccc(Cl)cc21` [Example I-15, 2-(6-Chloro-1-methyl-1H-indazol-3-yl)-5H-pyrrolo[2,3-b]pyrazine-7-carboxylic acid ((R)-1-methanesulfonyl-piperidin-3-yl)-amide]: the pIC50 is 7.87.

`C[C@@H](NC(=O)c1c[nH]c2ncc(-c3nn(C)c4cc(Cl)ccc34)nc12)C1CC1` [Example I-16, 2-(6-Chloro-1-methyl-1H-indazol-3-yl)-5H-pyrrolo[2,3-b]pyrazine-7-carboxylic acid ((R)-1-cyclopropyl-ethyl)-amide]: the pIC50 is 8.32.

Consider `C[C@@H](NC(=O)c1c[nH]c2ncc(-c3nn(C)c4cc(C(F)(F)F)ccc34)nc12)C(=O)N1CC(C#N)C1` [Example I-18, 2-(1-Methyl-6-trifluoromethyl-1H-indazol-3-yl)-5H-pyrrolo[2,3-b]pyrazine-7-carboxylic acid [(R)-2-(3-cyano-azetidin-1-yl)-1-methyl-2-oxo-ethyl]-amide], for which the pIC50 was 8.94.

As for `Cn1nc(-c2cnc3[nH]cc(C(=O)N[C@@H](C(=O)N4CCC(C#N)CC4)C(C)(C)C)c3n2)c2ccc(Cl)cc21` [Example I-19, 2-(6-Chloro-1-methyl-1H-indazol-3-yl)-5H-pyrrolo[2,3-b]pyrazine-7-carboxylic acid [(R)-1-(4-cyano-piperidine-1-carbonyl)-2,2-dimethyl-propyl]-amide], the pIC50 was 8.67.

With `C[C@@H](NC(=O)c1c[nH]c2ncc(-c3n[nH]c4cc(Cl)ccc34)nc12)C(=O)N1CC(C#N)C1` [Example I-23, 2-(6-Chloro-1H-indazol-3-yl)-5H-pyrrolo[2,3-b]pyrazine-7-carboxylic acid [(R)-2-(3-cyano-azetidin-1-yl)-1-methyl-2-oxo-ethyl]-amide], the pIC50 is 9.23.

For the compound `COCCn1nc(-c2cnc3[nH]cc(C(=O)N[C@H](C)C(=O)N4CC(C#N)C4)c3n2)c2ccc(Cl)cc21` [Example I-24, 2-[6-Chloro-1-(2-methoxy-ethyl)-1H-indazol-3-yl]-5H-pyrrolo[2,3-b]pyrazine-7-carboxylic acid [(R)-2-(3-cyano-azetidin-1-yl)-1-methyl-2-oxo-ethyl]-amide], the pIC50 is 8.63.

Take `C[C@@H](NC(=O)c1c[nH]c2ncc(-c3nn(C)c4c3CCCC4)nc12)C(=O)N1CC(C#N)C1` [Example I-26, 2-(1-Methyl-4,5,6,7-tetrahydro-1H-indazol-3-yl)-5H-pyrrolo[2,3-b]pyrazine-7-carboxylic acid [(R)-2-(3-cyano-azetidin-1-yl)-1-methyl-2-oxo-ethyl]-amide]: the pIC50 is 8.24.

As for `C[C@@H](NC(=O)c1c[nH]c2ncc(-c3nn(C)c4cc(Cl)ccc34)nc12)C(=O)N1CC2(COC2)C1` [Example I-27, 2-(6-Chloro-1-methyl-1H-indazol-3-yl)-5H-pyrrolo[2,3-b]pyrazine-7-carboxylic acid [(R)-1-methyl-2-(2-oxa-6-aza-spiro[3.3]hept-6-yl)-2-oxo-ethyl]-amide], the pIC50 was 7.69.

Consider `C[C@@H](NC(=O)c1c[nH]c2ncc(-c3nn(C)c4cc(Cl)ccc34)nc12)C(=O)N1CCOCC1` [Example I-28, 2-(6-Chloro-1-methyl-1H-indazol-3-yl)-5H-pyrrolo[2,3-b]pyrazine-7-carboxylic acid ((R)-1-methyl-2-morpholin-4-yl-2-oxo-ethyl)-amide], for which the pIC50 is 7.07.

Consider `C[C@@H](NC(=O)c1c[nH]c2ncc(-c3nn(C)c4cc(Cl)c(F)cc34)nc12)C(=O)N1CC(C#N)C1` [Example I-30, 2-(6-Chloro-5-fluoro-1-methyl-1H-indazol-3-yl)-5H-pyrrolo[2,3-b]pyrazine-7-carboxylic acid [(R)-2-(3-cyano-azetidin-1-yl)-1-methyl-2-oxo-ethyl]-amide], for which the pIC50 is 8.84.

`Cc1nc(-c2cnc3[nH]cc(C(=O)N[C@H](C)C(=O)N4CC(C#N)C4)c3n2)c2ccc(F)cn12` [Example I-34, 2-(6-Fluoro-3-methyl-imidazo[1,5-a]pyridin-1-yl)-5H-pyrrolo[2,3-b]pyrazine-7-carboxylic acid [(R)-2-(3-cyano-azetidin-1-yl)-1-methyl-2-oxo-ethyl]-amide]: the pIC50 is 8.90.

The next experiment deals with T2, recombinant human SYK360-635 (Homo sapiens, UniProt P43405).
T2 construct: made in house
As to the kind of experiment: Determination of IC50 of Spleen Tyrosine Kinase (SYK) inhibition, 33P ATP filtration assay. The experiment is classed as biochemical. The settings on record: SYK aa 360-635 0.5 nM; ATP 20 μM, peptide 5 μM, 0.1% BSA; read-out: SYK_ENZYME_FILTRATION/v1, BSA.
On to `Cn1nc(-c2cnc3[nH]cc(C(=O)NC(C)(C)C)c3n2)c2cc(S(C)(=O)=O)ccc21` [Example I-461, N-tert-Butyl-2-(1-methyl-5-(methylsulfonyl)-1H-indazol-3-yl)-5H-pyrrolo[3,2-b]pyrazine-7-carboxamide], for which the pIC50 was 6.84.

Turning to `CC(O)CCn1nc(-c2cnc3[nH]cc(C(=O)NC(C)(C)CO)c3n2)c2ccc(F)cc21` (stereo not shown) [Example I-462, 2-(6-Fluoro-1-(3-hydroxybutyl)-1H-indazol-3-yl)-N-(1-hydroxy-2-methylpropan-2-yl)-5H-pyrrolo[3,2-b]pyrazine-7-carboxamide], the pIC50 was 7.75.

For `Cn1nc(-c2cnc3[nH]cc(C(=O)NCC4(O)CNC4)c3n2)c2ccc(F)cc21` [Example I-463, 2-(6-Fluoro-1-methyl-1H-indazol-3-yl)-N-((3-hydroxyazetidin-3-yl)methyl)-5H-pyrrolo[3,2-b]pyrazine-7-carboxamide trifluoroacetate], the pIC50 is 8.27.
